In US20240224991A9, “NANO-DISPERSION COMPRISING CELLULOSE NANOCRYSTAL AS PESTICIDE/FUNGICIDE CARRIERS FOR AGRICULTURE AND AQUACULTURE” (priority 2022, published 2024) one finds mortality data, which are given here for one molecule.

This assay concerns mealworms. Nature of the assay: Pest mortality test, mealworms on sprayed spinach leaves. Particulars: 100 ppm DEL, in 2 hours, FIG. 3C. The assay is classed as in vivo, mealworms (larval form of the mealworm beetles). On the procedure:
Deltamethrin and permethrin/CNC nano-dispersions with agrochemical and CNC mass ratio of 1:100 were prepared according to the said process in example 5, and they are designated as CNC-DEL and CNC-PER, respectively. The resulting nano-dispersions were diluted to 0.1 wt %, 0.5 wt %, 1.0 wt % and 1.5 wt %, where the corresponding active ingredient concentration was around 10 ppm, 50 ppm, 100 ppm and 150 ppm. To perform the pest control test, fresh spinach leaves were spread on a petri dish (10 cm diameter), then 2 mL of the dispersion was sprayed on top (1 mL) and bottom (1 mL) of the leave surface, and 20 active worms were placed on top of the leaves. The survival rate of the works was recorded at set time intervals. In comparison, the pest control efficiency of 1 wt % CNC (0 ppm DEL) and DEL control (100 ppm DEL) were also investigated and compared with 1.0 wt % CNC-DEL (100 ppm DEL). In addition, the pest control efficiency of CNC-PER was compared with the commercial EC pesticide ORTHO® HOME DEFENSE® MAX™ under the same PER dosage.
Both permethrin and deltamethrin are wide spectrum pesticides that belong to synthetic pyrethroids pesticides. Their mode of action is mainly based on contact and stomach toxicity. The pest control efficiency of CNC-DEL and CNC-PER nano-dispersions were evaluated with two model worms, mealworms and waxworms. […]

A word on the mortality: it is the share of the test organisms that died.

Take `CC1(C)[C@H](C(=O)O[C@H](C#N)c2cccc(Oc3ccccc3)c2)[C@@H]1C=C(Br)Br` [DEL control, Deltamethrin]: the mortality at 100 ppm turned out to be 30%.
